Calls of active or inactive are those of the source. The rule behind the calls is not given here.

In the series the test system is CCRIS mutagenicity, Ames/micronucleus/aberration tests. Nature of the series: CCRIS mutagenicity studies. Conditions: Test System: AMES SALMONELLA TYPHIMURIUM

Take `COc1ccccc1NCSC`: the mutagenic call reads like this: (Strain/Indicator: TA98, Metabolic Activation: NONE, Method: SPOT TEST) “inactive; negative”; (Strain/Indicator: TA98, Metabolic Activation: RAT, LIVER, S-9, AROCLOR 1254, Method: SPOT TEST) “active; positive”; (Strain/Indicator: TA100, Metabolic Activation: NONE, Method: SPOT TEST) “active; positive”; (Strain/Indicator: TA100, Metabolic Activation: RAT, LIVER, S-9, AROCLOR 1254, Method: SPOT TEST) “active; positive”; (Strain/Indicator: TA102, Metabolic Activation: NONE, Method: SPOT TEST) “inactive; negative”; (Strain/Indicator: TA102, Metabolic Activation: RAT, LIVER, S-9, AROCLOR 1254, Method: SPOT TEST) “active; positive”.

Consider `O=[N+]([O-])c1ccc2nc3cc([N+](=O)[O-])ccc3nc2c1`, for which the mutagenic call was “active; positive” (Strain/Indicator: TA98(NR), Metabolic Activation: NONE, Method: PREINCUBATION) and “active; positive” (Strain/Indicator: TA98, Metabolic Activation: NONE, Method: PREINCUBATION).

In the case of `CC(=O)Nc1ccc(OC(=O)c2ccccc2OC(C)=O)cc1`, the mutagenic call runs as follows: (Strain/Indicator: TA97, Metabolic Activation: NONE, Method: STANDARD PLATE) “inactive; negative”; (Strain/Indicator: TA97, Metabolic Activation: RAT, LIVER, S-9, AROCLOR 1254, Method: STANDARD PLATE) “inactive; negative”; (Strain/Indicator: TA98, Metabolic Activation: NONE, Method: STANDARD PLATE) “inactive; negative”; (Strain/Indicator: TA98, Metabolic Activation: RAT, LIVER, S-9, AROCLOR 1254, Method: STANDARD PLATE) “inactive; negative”; (Strain/Indicator: TA100, Metabolic Activation: NONE, Method: STANDARD PLATE) “inactive; negative”; (Strain/Indicator: TA100, Metabolic Activation: RAT, LIVER, S-9, AROCLOR 1254, Method: STANDARD PLATE) “inactive; negative”. Also, the mutagenic call (Strain/Indicator: TA1535, Metabolic Activation: NONE, Method: STANDARD PLATE) was “inactive; negative”; the mutagenic call (Strain/Indicator: TA1535, Metabolic Activation: RAT, LIVER, S-9, AROCLOR 1254, Method: STANDARD PLATE) was “inactive; negative”; the mutagenic call (Strain/Indicator: TA1537, Metabolic Activation: NONE, Method: STANDARD PLATE) was “inactive; negative”; the mutagenic call (Strain/Indicator: TA1537, Metabolic Activation: RAT, LIVER, S-9, AROCLOR 1254, Method: STANDARD PLATE) was “inactive; negative”; the mutagenic call (Strain/Indicator: TA1538, Metabolic Activation: NONE, Method: STANDARD PLATE) is “inactive; negative”; the mutagenic call (Strain/Indicator: TA1538, Metabolic Activation: RAT, LIVER, S-9, AROCLOR 1254, Method: STANDARD PLATE) is “inactive; negative”.

These data come from PubChem BioAssay AID1259407 (Chemical Carcinogenesis Research Information System (CCRIS), 2018).
